Where two headings read alike, the source gives them in different places.
Columns and labels:
[1] = Distribution coefficient (logD), n-octanol-PBS; format: physicochemical; details: n-octanol-PBS (pH = 7.4) system
Procedure: The logD values of the newly synthesized complexes were determined according to a procedure described in our previous publications. page 64: Ir-7b +1.17 Rh-7b +1.41 Ru-7c +1.31 Os-7c +1.59 Ir-7c +1.40 Rh-7c +1.13 Ru-7d +1.26 Os-7d +1.42 Ir-7d +1.30 Rh-7d +1.04 Ru-7e +2.22 Os-7e +2.21 Ir-7e +1.39 Rh-7e +1.66 *logD was determined in an n-octanol-PBS (pH = 7.4) system 64 (14 pictures or pasted objects on this page, not shown here)

A2780 cells = test: SRB binding assay, cytostasis, 48 h treatment; format: cell-based
Outline: (§1)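 Ovarian cancer A2780 cells and primary human dermal fibroblasts treated 48 h, TCA-fixed, SRB-stained, absorbance at 540 nm relative to vehicle. IC50 from four-parameter fit when a plateau was reached or inhibition exceeded 90%; otherwise percent inhibition at 100 μM.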

[2] = molecular target: primary human dermal fibroblasts; test: SRB binding assay, cytostasis, 48 h treatment; format: cell-based; details: read-out: Fibroblast SRB IC50
Outline: as §1

[3] = test system: vancomycin-resistant Enterococcus (VRE) clinical isolates; test: Broth microdilution MIC, clinical VRE isolates; format: cell-based, E. faecium; details: 24 h, 0.08–40 μM
Outline: (§2)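 S. aureus and E. faecium clinical isolates (Debrecen, 2018–2020; MALDI-TOF-identified) tested by EUCAST broth microdilution in Mueller–Hinton broth at 5.0 × 10^5 CFU/mL across 0.08–40 μM (twofold). After 24 h at 37 °C, visually read; MIC is the lowest concentration giving ≥50% inhibition versus growth control. At least two runs in duplicate.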

[4] = test system: methicillin-resistant Staphylococcus aureus (MRSA) clinical isolates; test: Broth microdilution MIC, clinical MRSA isolates; format: cell-based; details: 24 h, 0.08–40 μM
Outline: as §2

[5] = test system: Staphylococcus aureus (ATCC29213); test: Broth microdilution MIC, reference strain; format: cell-based; details: 24 h, 0.08–40 μM, read-out: MIC S. aureus ATCC 29213
Outline: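 EUCAST broth microdilution in Mueller–Hinton broth, inoculum 5.0 × 10^5 CFU/mL, compounds at 0.08–40 μM (twofold dilutions), 24 h at 37 °C. Plates read visually; MIC taken as lowest concentration giving ≥50% inhibition versus drug-free growth control.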

ID8 cells = test: SRB assay, 48 h; format: cell-based
Procedure: (§3) Figure 8 Assessment of free ligand 3a and complex Ru-3a for cytostatic activity in multiple carcinomas. […] Cells were treated with the compounds in the concentrations indicated for 48 h; then, an SRB assay was performed. Data are represented as average ± SD from three biological replicates; individual assays were performed in duplicates. Values were normalized for vehicle-treated cells; absorbance for vehicle-treated cells equals 1. Statistical significance was assessed using a one-way ANOVA test comparing all values to the lowest concentration of a compound. Before the test, normality was assessed using the Shapiro–Wilk test, and the post hoc test was chosen accordingly. […] An SRB assay measures protein content of cells in correlation with the cell number in an assay well and can therefore be used to assess cell proliferation or long-term cytostasis. Cells were seeded in 96-well plates the day before the assay. Cells were treated with the compounds for 48 h. Then medium was removed, and cells were fixed with 10% trichloroacetic acid. […] Stained cells were washed in 1% acetic acid 5 times; acetic acid was removed, and cells were left to dry. Protein-bound SRB was released by adding 100 μL 10 mM Tris base. Plates were measured in a plate photometer (Thermo Scientific Multiscan GO spectrophotometer, Waltham, MA, USA) at 540 nm. On each plate, wells were designed to contain vehicle-treated cells. […] Statistical analysis was performed using version 8.0.1 of GraphPad Prism. Values were tested for normal distribution using the Shapiro–Wilk normality test. […] In other cases, the percentage of inhibition was taken for the maximum concentration (100 μM).

MCF7 cells = test: SRB assay, 48 h; format: cell-based
Procedure: as §3

U251 cells = test: SRB assay, 48 h; format: cell-based
Procedure: as §3

Capan2 cells = test: SRB assay, 48 h; format: cell-based
Procedure: as §3

For `Cc1ccc(C(C)C)cc1.F[P-](F)(F)(F)(F)F.N[C@@H]1[C@@H](OCc2ccccc2)[C@H](OCc2ccccc2)[C@@H](COCc2ccccc2)O[C@H]1c1ccccn1.[Cl][Ru+]` [Ru-3a], the logD [1] was 2.72, the IC50 (A2780 cells) was 1860 nM and the “A2780 SRB Max Inhibition” value (A2780 cells; up to 100 μM, ND = not detectable) was greater than 90%. The IC50 [2] was 9620 nM, the MIC ([3]; clinical isolate 25,051 VRE, read-out: MIC 25,051 VRE) was 5 µM and the MIC ([3]; clinical isolate 25,498 VRE, read-out: MIC 25,498 VRE) was 5 µM. For the same compound, the MIC ([3]; clinical isolate 27,085 VRE, read-out: MIC 27,085 VRE) was 5 µM, the MIC ([4]; clinical isolate 20,426 MRSA, read-out: MIC 20,426 MRSA) was 5 µM and the MIC ([4]; clinical isolate 24,035 MRSA, read-out: MIC 24,035 MRSA) was 5 µM. For the same compound, the MIC ([4]; clinical isolate 24,268 MRSA, read-out: MIC 24,268 MRSA) was 5 µM, the MIC ([4]; clinical isolate 24,272 MRSA, read-out: MIC 24,272 MRSA) was 5 µM and the MIC ([4]; clinical isolate 24,328 MRSA, read-out: MIC 24,328 MRSA) was 5 µM. It also gave an MIC ([4]; clinical isolate 24,408 MRSA, read-out: MIC 24,408 MRSA) of 5 µM, an MIC [5] of 5 µM and an IC50 (ID8 cells) of 2540 nM. The “ID8 SRB Max Inhibition” value (ID8 cells) was greater than 90%, the IC50 (MCF7 cells) was 2300 nM and the “MCF7 SRB Max Inhibition” value (MCF7 cells) was greater than 90%. For the same compound, the IC50 (U251 cells) was 3970 nM, the “U251 SRB Max Inhibition” value (U251 cells) was greater than 90% and the “Capan2 SRB Max Inhibition” value (Capan2 cells) was greater than 90%. It also gave an IC50 (Capan2 cells) of 2250 nM.
